We go through nine molecules from PubChem BioAssay (NCI).

Some test systems named below: NCI-H226 lung; HCT-116 colon; UO-31 renal; SF-295 CNS; CAKI-1 renal; NCI/ADR-RES ovarian; HT29 colon; HCT-15 colon.
What all share (assay): NCI tumour cell line growth inhibition, 48 h

Structures are written as SMILES.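 1) Cells in 96-well plates. 2) Compound, 48 h, 5 concentrations. 3) Linear interpolation between surrounding doses. 4) Unreached endpoint = highest concentration. GI50 marks 50% less growth. TGI is the concentration that stops growth completely.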 A value given as a limit tells only on which side of the number the result lay.

On to `COc1ccc2c(c1OC)-c1c(c3ccc([N+](=O)[O-])cc3c(=O)n1CCCBr)C2=O`, for which the GI50 with NCI-H226 lung was 26.8 µM; in the assay on HCT-116 colon, 19 µM; with UO-31 renal, 35.3 µM; in the assay with SF-295 CNS, 28.6 µM; with CAKI-1 renal, 7.31 µM; in the assay on NCI/ADR-RES ovarian it was 26 µM. In addition, the TGI in the assay with NCI-H226 lung was 84.3 µM; in the assay on HCT-116 colon, > 100 µM; in the assay with UO-31 renal, > 100 µM; in the assay with SF-295 CNS it was > 100 µM; with CAKI-1 renal it was > 100 µM; with NCI/ADR-RES ovarian, 98.9 µM.
For the molecule `COC(=O)C(CCC(=O)CCl)N1C(=O)c2ccccc2C1=O` (configuration not stated), the TGI is 29.9 µM in the assay on NCI-H226 lung; 27.6 µM in the assay on HT29 colon; 15.8 µM with HCT-15 colon; 14.5 µM with HCT-116 colon; 24.2 µM in the assay on UO-31 renal; 35.2 µM with SF-295 CNS. For the same molecule, the figures for the TGI in the assay with CAKI-1 renal and with NCI/ADR-RES ovarian were 26.7 µM and 29.7 µM, respectively.
Regarding `O=c1c2cc(-c3ccccc3)sc2ncn1Cc1ccc(Cl)c(Cl)c1`, the GI50 is 13.1 µM with NCI-H226 lung; 67.7 µM in the assay with HT29 colon; 0.845 µM in the assay on HCT-15 colon; 15 µM with HCT-116 colon; 31.8 µM with UO-31 renal; 12.3 µM in the assay with SF-295 CNS. Besides, the GI50 was 16.4 µM in the assay on CAKI-1 renal and 19.5 µM with NCI/ADR-RES ovarian. For the same molecule, the TGI was 87.2 µM in the assay on NCI-H226 lung; > 100 µM in the assay on HT29 colon; > 100 µM in the assay on HCT-15 colon; 41.1 µM with HCT-116 colon; > 100 µM in the assay with UO-31 renal; 30.6 µM with SF-295 CNS. Also, the TGI in the assay on CAKI-1 renal is 49.1 µM; with NCI/ADR-RES ovarian, 59 µM.
For the molecule `CNNC(=N\S(=O)(=O)c1cc(C)c(Cl)cc1SCc1ccccc1)/N=C/c1ccc([N+](=O)[O-])s1`, the GI50 was 27.4 µM in the assay on HT29 colon; 1.53 µM in the assay on HCT-116 colon; > 100 µM in the assay with UO-31 renal; > 87.7 µM in the assay with SF-295 CNS; > 100 µM in the assay with CAKI-1 renal; > 100 µM in the assay on NCI/ADR-RES ovarian. Further, the TGI in the assay with HT29 colon, in the assay on HCT-15 colon, in the assay on HCT-116 colon, with UO-31 renal, with SF-295 CNS and in the assay with CAKI-1 renal was > 100 µM in each case. The TGI in the assay on NCI/ADR-RES ovarian was > 100 µM.
On to `CCCCCCCCOC(=O)c1c(C)[nH]c(/C=C2\N=C(c3ccc[nH]3)C=C2OC)c1C`, for which the GI50 with NCI-H226 lung is 0.0873 µM; in the assay with HT29 colon, < 0.0179 µM; in the assay on HCT-15 colon it was < 0.0163 µM; in the assay on HCT-116 colon, < 0.0177 µM; with UO-31 renal, 0.0377 µM; with SF-295 CNS it was 0.0779 µM. The GI50 in the assay on CAKI-1 renal was < 0.0214 µM; in the assay on NCI/ADR-RES ovarian it was 0.0367 µM. In addition, the TGI in the assay with NCI-H226 lung came out at 6.26 µM; with HT29 colon, 1.43 µM; in the assay on HCT-15 colon, 3.15 µM; with HCT-116 colon, 1.25 µM; with UO-31 renal, 0.108 µM; in the assay with SF-295 CNS it was 0.639 µM. Further, the TGI in the assay on CAKI-1 renal stood at 4.83 µM; with NCI/ADR-RES ovarian it was 9.86 µM.
Take `COc1cc2ncnc(-n3ncc4cc(NC(=O)Nc5ccc(Cl)c(Cl)c5)ccc43)c2cc1OC`: the GI50 with NCI-H226 lung is 2.45 µM; in the assay on HT29 colon it was 1.98 µM; with HCT-15 colon, 1.93 µM; in the assay with HCT-116 colon, 2.8 µM; in the assay with UO-31 renal it was 2.04 µM; with SF-295 CNS, 1.38 µM. In addition, the GI50 with CAKI-1 renal is 2.3 µM; with NCI/ADR-RES ovarian, 2.36 µM. For the same molecule, the TGI is 4.8 µM in the assay on NCI-H226 lung; 4.29 µM with HT29 colon; 4.87 µM in the assay on HCT-15 colon; 10.3 µM in the assay on HCT-116 colon; 4.17 µM with UO-31 renal; 2.94 µM in the assay on SF-295 CNS. Also, the TGI with CAKI-1 renal is 5.94 µM; with NCI/ADR-RES ovarian it was 6.23 µM.
As for `c1cc(-c2nnc(SSc3ncnc4nc[nH]c34)o2)ccn1`, the GI50 with NCI-H226 lung is 4.63 µM; in the assay on HT29 colon, 2.42 µM; with HCT-15 colon it was 2.8 µM; with HCT-116 colon, 2 µM; with UO-31 renal, 0.742 µM; with SF-295 CNS, 0.51 µM. Also, the GI50 with CAKI-1 renal is 0.472 µM; with NCI/ADR-RES ovarian, 2.74 µM. For the same molecule, the TGI in the assay on NCI-H226 lung was > 100 µM; with HT29 colon it was > 100 µM; with HCT-15 colon, > 100 µM; in the assay on HCT-116 colon, > 100 µM; with UO-31 renal it was > 100 µM; in the assay with SF-295 CNS it was 12.8 µM. Further, the results for the TGI in the assay with CAKI-1 renal and with NCI/ADR-RES ovarian were 5.17 µM and > 100 µM, respectively.
On to `CCn1c(-c2cc3c([nH]c4ccccc43)c(-c3cccc(O)c3)n2)n[nH]c1=S`, for which the GI50 is 6.45 µM in the assay with NCI-H226 lung; 2.74 µM in the assay on HT29 colon; 3.37 µM in the assay with HCT-15 colon; 3.88 µM in the assay with HCT-116 colon; 2.24 µM in the assay on UO-31 renal; 3.24 µM in the assay with SF-295 CNS. In addition, the GI50 with NCI/ADR-RES ovarian is 3.15 µM. For the same molecule, the TGI was 55.8 µM in the assay with NCI-H226 lung; 6.97 µM in the assay on HT29 colon; 16.1 µM in the assay on HCT-15 colon; 15 µM with HCT-116 colon; 11.8 µM with UO-31 renal; 22.8 µM in the assay on SF-295 CNS. The TGI with NCI/ADR-RES ovarian stood at 42 µM.
With `NS(=O)(=O)c1ccc(N=Nc2c(O)[nH]c3ccc(C(=O)NCc4ccncc4)cc23)cc1`, the GI50 was > 25 µM with NCI-H226 lung; 24.6 µM in the assay on HT29 colon; > 25 µM with HCT-15 colon; > 25 µM in the assay with HCT-116 colon; > 25 µM in the assay on UO-31 renal; > 25 µM in the assay with SF-295 CNS. The GI50 with CAKI-1 renal and in the assay on NCI/ADR-RES ovarian was > 25 µM throughout. Besides, the TGI in the assay on NCI-H226 lung, with HT29 colon, in the assay on HCT-15 colon, in the assay on HCT-116 colon, in the assay on UO-31 renal and in the assay on SF-295 CNS was > 25 µM each time. Moreover, the TGI in the assay on CAKI-1 renal and in the assay on NCI/ADR-RES ovarian was > 25 µM each time.
